Test results: PubChem BioAssay (NCI)
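Grown in 96-well plates, cells were treated for 48 hours with each compound at five concentrations. Insufficient inhibition: endpoint recorded as highest concentration tested. TGI marks complete inhibition of growth.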

Columns and labels:
Test in all cases: NCI tumour cell line growth inhibition, 48 h
[1] = system: HCT-116 colon
[2] = system: SNB-78 CNS
[3] = system: EKVX NSCLC
[4] = system: HL-60(TB) leukemia
[5] = system: CCRF-CEM leukemia
[6] = system: K-562 leukemia
[7] = system: HOP-18 NSCLC
[8] = system: UO-31 renal
[9] = system: NCI-H460 lung
[10] = system: U251 CNS
[11] = system: DMS 114 small cell lung
[12] = system: TK-10 renal
[13] = system: HOP-92 NSCLC
[14] = system: NCI-H226 lung
[15] = system: 786-0 renal
[16] = system: HOP-62 NSCLC
[17] = system: SK-OV-3 ovarian
[18] = system: SR leukemia
[19] = system: ACHN renal
[20] = system: LOX IMVI melanoma
[21] = system: SN12C renal
[22] = system: KM20L2 colon
[23] = system: HCC-2998 colon
[24] = system: SF-295 CNS
[25] = system: SNB-75 CNS
[26] = system: SK-MEL-2 melanoma
[27] = system: RPMI-8226 leukemia
[28] = system: OVCAR-4 ovarian
[29] = system: OVCAR-5 ovarian
[30] = system: NCI-H522 lung
[31] = system: A549 NSCLC
[32] = system: OVCAR-3 ovarian
[33] = system: SK-MEL-5 melanoma
[34] = system: DLD-1 colon
[35] = system: NCI-H23 lung
[36] = system: OVCAR-8 ovarian
[37] = system: UACC-257 melanoma
[38] = system: M14 melanoma
[39] = system: CAKI-1 renal
[40] = system: XF 498 CNS
[41] = system: MALME-3M melanoma
[42] = system: SF-268 CNS
[43] = system: IGROV1 ovarian
[44] = system: RXF 393 renal
[45] = system: SW-620 colon
[46] = system: HT29 colon
[47] = system: M19-MEL melanoma
[48] = system: UACC-62 melanoma
[49] = system: MOLT-4 leukemia
[50] = system: COLO 205 colon
[51] = system: SK-MEL-28 melanoma
[52] = system: KM12 colon
[53] = system: DMS 273 small cell lung
[54] = system: SF-539 CNS
[55] = system: HCT-15 colon
[56] = system: A498 renal
[57] = system: SNB-19 CNS
[58] = system: LXFL 529 NSCLC

SMILES: CS(=O)(=O)OCCN(CCOS(C)(=O)=O)c1ccc(/C=N/Nc2ncnc3nc[nH]c23)cc1
- TGI [1]: 59.9 µM
- TGI [2]: 75.5 µM
- TGI [3]: 78.4 µM
- TGI [4]: 27.1 µM
- TGI [5]: > 100 µM
- TGI [6]: > 100 µM
- TGI [7]: 70.7 µM
- TGI [8]: 92 µM
- TGI [9]: 34.3 µM
- TGI [10]: 53.5 µM
- TGI [11]: 26.2 µM
- TGI [12]: 63.6 µM
- TGI [13]: 63.5 µM
- TGI [14]: 51.7 µM
- TGI [15]: 45.5 µM
- TGI [16]: 74.8 µM
- TGI [17]: > 100 µM
- TGI [18]: 46 µM
- TGI [19]: 97.2 µM
- TGI [20]: 37.7 µM
- TGI [21]: > 100 µM
- TGI [22]: 58 µM
- TGI [23]: 39.5 µM
- TGI [24]: 46.6 µM
- TGI [25]: 33.6 µM
- TGI [26]: 39.2 µM
- TGI [27]: 39 µM
- TGI [28]: 60 µM
- TGI [29]: 51.4 µM
- TGI [30]: 31.1 µM
- TGI [31]: 96.6 µM
- TGI [32]: 39.8 µM
- TGI [33]: 31.7 µM
- TGI [34]: 74.9 µM
- TGI [35]: 39 µM
- TGI [36]: 57.7 µM
- TGI [37]: 48.9 µM
- TGI [38]: 34.1 µM
- TGI [39]: 32.5 µM
- TGI [40]: 38.8 µM
- TGI [41]: 55.2 µM
- TGI [42]: 46.1 µM
- TGI [43]: 71.6 µM
- TGI [44]: 37.9 µM
- TGI [45]: 66.8 µM
- TGI [46]: 65.9 µM
- TGI [47]: 51 µM
- TGI [48]: 27.8 µM
- TGI [49]: 40 µM
- TGI [50]: 31.7 µM
- TGI [51]: 63.4 µM
- TGI [52]: 34.8 µM
- TGI [53]: 35.4 µM
- TGI [54]: 49.4 µM
- TGI [55]: > 100 µM
- TGI [56]: 60.6 µM
- TGI [57]: > 100 µM

SMILES: Cc1ccc(N=NC(C2=NC(=O)CS2)c2nc3ccccc3[nH]2)cc1 (configuration not stated)
- TGI [1]: > 100 µM
- TGI [3]: > 100 µM
- TGI [4]: > 100 µM
- TGI [5]: > 100 µM
- TGI [6]: > 100 µM
- TGI [8]: > 100 µM
- TGI [9]: > 100 µM
- TGI [10]: > 100 µM
- TGI [11]: > 100 µM
- TGI [12]: > 100 µM
- TGI [13]: > 100 µM
- TGI [14]: > 100 µM
- TGI [16]: 69.3 µM
- TGI [17]: > 100 µM
- TGI [18]: > 100 µM
- TGI [19]: > 100 µM
- TGI [21]: > 100 µM
- TGI [58]: > 100 µM
- TGI [22]: > 100 µM
- TGI [24]: > 100 µM
- TGI [25]: > 100 µM
- TGI [27]: > 100 µM
- TGI [28]: > 100 µM
- TGI [29]: > 100 µM
- TGI [30]: > 100 µM
- TGI [31]: > 100 µM
- TGI [32]: > 100 µM
- TGI [33]: > 100 µM
- TGI [34]: > 100 µM
- TGI [35]: > 100 µM
- TGI [36]: > 100 µM
- TGI [37]: > 100 µM
- TGI [38]: > 100 µM
- TGI [39]: > 100 µM
- TGI [40]: > 100 µM
- TGI [41]: > 100 µM
- TGI [42]: > 100 µM
- TGI [43]: > 100 µM
- TGI [45]: > 100 µM
- TGI [46]: > 100 µM
- TGI [47]: > 100 µM
- TGI [48]: > 100 µM
- TGI [49]: 76.7 µM
- TGI [50]: > 100 µM
- TGI [51]: > 100 µM
- TGI [52]: > 100 µM
- TGI [53]: > 100 µM
- TGI [54]: > 100 µM
- TGI [55]: > 100 µM
- TGI [56]: > 100 µM
- TGI [57]: > 100 µM

SMILES: CCOC(=O)CC(NCc1ccc(N=Cc2nc3ccc(C(F)(F)F)cc3nc2-c2ccccc2)cc1)C(=O)OCC (configuration not stated)
- TGI [1]: > 100 µM
- TGI [2]: > 100 µM
- TGI [3]: > 100 µM
- TGI [4]: > 100 µM
- TGI [5]: > 100 µM
- TGI [6]: > 100 µM
- TGI [7]: > 100 µM
- TGI [8]: > 100 µM
- TGI [9]: > 100 µM
- TGI [10]: > 100 µM
- TGI [11]: > 100 µM
- TGI [12]: > 80.6 µM
- TGI [13]: > 100 µM
- TGI [14]: > 100 µM
- TGI [15]: > 100 µM
- TGI [16]: > 81.7 µM
- TGI [17]: > 100 µM
- TGI [18]: > 100 µM
- TGI [19]: > 100 µM
- TGI [20]: > 100 µM
- TGI [21]: > 100 µM
- TGI [58]: > 100 µM
- TGI [22]: > 100 µM
- TGI [23]: > 100 µM
- TGI [24]: > 100 µM
- TGI [25]: > 77 µM
- TGI [26]: > 73.3 µM
- TGI [27]: > 100 µM
- TGI [28]: > 100 µM
- TGI [29]: > 100 µM
- TGI [30]: > 100 µM
- TGI [31]: > 100 µM
- TGI [32]: > 100 µM
- TGI [33]: > 100 µM
- TGI [34]: > 100 µM
- TGI [35]: > 100 µM
- TGI [36]: > 100 µM
- TGI [37]: > 100 µM
- TGI [38]: > 100 µM
- TGI [39]: > 100 µM
- TGI [40]: 40.5 µM
- TGI [41]: > 100 µM
- TGI [42]: > 100 µM
- TGI [43]: > 100 µM
- TGI [44]: 56 µM
- TGI [45]: > 100 µM
- TGI [46]: > 100 µM
- TGI [47]: > 100 µM
- TGI [48]: 68.3 µM
- TGI [49]: > 100 µM
- TGI [50]: > 100 µM
- TGI [51]: > 100 µM
- TGI [52]: > 100 µM
- TGI [53]: > 100 µM
- TGI [54]: > 58 µM
- TGI [55]: > 100 µM
- TGI [56]: > 100 µM
- TGI [57]: > 69.8 µM

SMILES: COC1=CC(=O)C2C(C1=O)C(c1ccc(Cl)cc1)[C@@H]2C (some centres not stated)
- TGI [1]: 33.7 µM
- TGI [2]: > 100 µM
- TGI [3]: 71.4 µM
- TGI [4]: 55.7 µM
- TGI [5]: 93.2 µM
- TGI [6]: > 100 µM
- TGI [7]: 25.2 µM
- TGI [8]: 63.6 µM
- TGI [9]: 75.6 µM
- TGI [10]: 62.9 µM
- TGI [11]: 47.7 µM
- TGI [12]: > 100 µM
- TGI [13]: 54.8 µM
- TGI [14]: 81.8 µM
- TGI [15]: 57.2 µM
- TGI [16]: > 100 µM
- TGI [17]: > 100 µM
- TGI [19]: 31.9 µM
- TGI [20]: > 100 µM
- TGI [58]: 32.7 µM
- TGI [22]: > 100 µM
- TGI [23]: > 100 µM
- TGI [24]: > 100 µM
- TGI [25]: 64.8 µM
- TGI [26]: > 100 µM
- TGI [27]: > 100 µM
- TGI [28]: > 100 µM
- TGI [29]: > 100 µM
- TGI [30]: 29.8 µM
- TGI [31]: > 100 µM
- TGI [32]: > 100 µM
- TGI [33]: 41.2 µM
- TGI [34]: 70.5 µM
- TGI [35]: > 100 µM
- TGI [36]: 67.4 µM
- TGI [37]: > 100 µM
- TGI [38]: 71.7 µM
- TGI [39]: > 100 µM
- TGI [40]: 37.5 µM
- TGI [41]: 46 µM
- TGI [42]: 92.7 µM
- TGI [43]: > 100 µM
- TGI [44]: 79.1 µM
- TGI [45]: 74.9 µM
- TGI [46]: > 100 µM
- TGI [47]: 97.9 µM
- TGI [48]: 63 µM
- TGI [49]: 81.7 µM
- TGI [50]: > 100 µM
- TGI [51]: > 100 µM
- TGI [52]: > 100 µM
- TGI [53]: > 100 µM
- TGI [54]: 51.2 µM
- TGI [55]: 31.9 µM
- TGI [56]: > 100 µM
- TGI [57]: 80.3 µM
